Reference: US20130267476A1, “Pesticidal Active Mixtures Comprising Pyrazole Compounds” (BASF SE, priority 2010, published 2013)
Several values for one entry are separate records, joined by “and”; a condition that tells them apart may be missing. Identical values can stand only once. Like-named read-outs stand apart in the source and are kept apart here.

Columns and labels:
[1] = tested on: green peach aphid (Myzus persicae); test: Test 2—Control of Green Peach Aphid (artificial diet under membrane, systemic); assay type: in vivo; settings: 3 days
Source text: Test 2—Control of Green Peach Aphid
For evaluating control of green peach aphid (Myzus persicae) through systemic means the test unit consisted of 96-well-microtiter plates containing liquid artificial diet under an artificial membrane.
The compounds or mixtures were formulated using a solution containing 75% water and 25% DMSO. Different concentrations of formulated compounds or mixtures were pipetted into the aphid diet, using a custom built pipetter, at two replications.
(§1) For experimental mixtures in these tests identical volumes of both mixing partners at the desired concentrations respectively, were mixed together.
After application, 5-8 adult aphids were placed on the artificial membrane inside the microtiter plate wells. The aphids were then allowed to suck on the treated aphid diet and incubated at 23±1° C., 50±5% RH for 3 days. Aphid mortality and fecundity was then visually assessed.

[2] = tested on: vetch aphid (Megoura viciae); test: Test 1—Control of Vetch Aphid (leaf disks, 24-well microtiter plates); assay type: in vivo; settings: 5 days
Procedure: Test 1—Control of Vetch Aphid
For evaluating control of vetch aphid (Megoura viciae) through contact or systemic means the test unit consisted of 24-well-microtiter plates containing broad bean leaf disks.
The compounds or mixtures were formulated using a solution containing 75% water and 25% Dimethylsulfoxide (DMSO). Different concentrations of formulated compounds or mixtures were sprayed onto the leaf disks at 2.5 μl, using a custom built micro atomizer, at two replications.
as §1
After application, the leaf disks were air-dried and 5-8 adult aphids placed on the leaf disks inside the microtiter plate wells. The aphids were then allowed to suck on the treated leaf disks and incubated at 23±1° C., 50±5% relative humidity (RH) for 5 days. Aphid mortality and fecundity was then visually assessed.

[3] = tested on: boll weevil (Anthonomus grandis); test: Test 3—Control of Boll Weevil (insect diet with eggs); assay type: in vivo; settings: 5 days
Procedure: Test 3—Control of Boll Weevil
For evaluating control of boll weevil (Anthonomus grandis) the test unit consisted of 24-well-microtiter plates containing an insect diet and 20-30 A. grandis eggs.
The compounds or mixtures were formulated using a solution containing 75% water and 25% DMSO. Different concentrations of formulated compounds or mixtures were sprayed onto the insect diet at 20 μl, using a custom built micro atomizer, at two replications.
as §1
After application, microtiter plates were incubated at 23±1° C., 50±5% RH for 5 days. Egg and larval mortality was then visually assessed.

[4] = tested on: Mediterranean fruitfly (Ceratitis capitata); test: Test 4—Control of Mediterranean Fruitfly (insect diet with eggs); assay type: in vivo; settings: 5 days
Procedure: Test 4—Control of Mediterranean Fruitfly
For evaluating control of Mediterranean fruitfly (Ceratitis capitata) the test unit consisted of 96-well-microtiter plates containing an insect diet and 50-80 C. capitata eggs.
The compounds or mixtures were formulated using a solution containing 75% water and 25% DMSO. Different concentrations of formulated compounds or mixtures were sprayed onto the insect diet at 5 μl, using a custom built micro atomizer, at two replications.
as §1
(§2) After application, microtiter plates were incubated at 28±1° C., 80±5% RH for 5 days. Egg and larval mortality was then visually assessed.

Pyricularia oryzae = assay type: cell-based; settings: 7 days after inoculation
Alternaria solani = test: Test 8—Activity Against Early Blight on Tomatoes Caused by Alternaria solani (microtest); assay type: cell-based; settings: 7 days after inoculation
Source text: (§3) The active compounds were formulated separately as a stock solution having a concentration of 10000 ppm in dimethyl sulfoxide.
(§4) The measured parameters were compared to the growth of the active compound-free control variant (100%) and the fungus-free and active compound-free blank value to determine the relative growth in % of the pathogens in the respective active compounds. These percentages were converted into efficacies.
Test 8—Activity Against Early Blight on Tomatoes Caused by Alternaria solani
The stock solutions were mixed according to the ratio, pipetted onto a micro titer plate (MTP) and diluted with water to the stated concentrations. A spore suspension of Alternaria solani in an aqueous biomalt solution was then added. The plates were placed in a water vapor-saturated chamber at a temperature of 18° C. Using an absorption photometer, the MTPs were measured at 405 nm 7 days after the inoculation.

Septoria tritici = test: Test 9—Activity Against Leaf Blotch on Wheat Caused by Septoria tritici (microtest); assay type: cell-based; settings: 7 days after inoculation
Source text: as §3, §4
Test 9—Activity Against Leaf Blotch on Wheat Caused by Septoria tritici
The stock solutions were mixed according to the ratio, pipetted onto a micro titer plate (MTP) and diluted with water to the stated concentrations. A spore suspension of SepCoria triticiin an aqueous biomalt solution was then added. The plates were placed in a water vapor-saturated chamber at a temperature of 18° C. Using an absorption photometer, the MTPs were measured at 405 nm 7 days after the inoculation.

Botrytis cinerea = test: Test 6—Activity Against the Grey Mold Botrytis cinerea in the Microtiterplate Test; assay type: cell-based; settings: 7 days after inoculation
Source text: as §3, §4
Test 6—Activity Against the Grey Mold Botrytis cinerea in the Microtiterplate Test
The stock solutions were mixed according to the ratio, pipetted onto a micro titer plate (MTP) and diluted with water to the stated concentrations. A spore suspension of Botrci cinerea in an aqueous biomalt solution was then added. The plates were placed in a water vapor-saturated chamber at a temperature of 18° C. Using an absorption photometer, the MTPs were measured at 405 nm 7 days after the inoculation.

[5] = tested on: tobacco budworm (Heliothis virescens); test: Test 5—Control of Tobacco Budworm (insect diet with eggs); assay type: in vivo; settings: 5 days
Procedure: Test 5—Control of Tobacco Budworm
For evaluating control of tobacco budworm (Heliothis virescens) the test unit consisted of 96-well-microtiter plates containing an insect diet and 15-25 H. virescens eggs.
The compounds or mixtures were formulated using a solution containing 75% water and 25% DMSO. Different concentrations of formulated compounds or mixtures were sprayed onto the insect diet at 10 μl, using a custom built micro atomizer, at two replications.
as §1, §2

[6] = 0 + 0.4 ppm (second compound alone)
[7] = 0 + 10 ppm (second compound alone)
[8] = 0 + 2 ppm (second compound alone)
[9] = 0 + 20 ppm (second compound alone)
[10] = 2 + 0 ppm (first compound alone)
[11] = 10 + 0 ppm (first compound alone)
[12] = 50 + 0 ppm (first compound alone)
[13] = 0 + 0.08 ppm (second compound alone)

C[C@]1(COC(=O)CC2CC2)[C@@H]2C[C@H](OC(=O)CC3CC3)[C@@]3(C)Oc4cc(-c5cccnc5)oc(=O)c4[C@H](O)[C@@H]3[C@@]2(C)CC[C@@H]1OC(=O)CC1CC1 [A27.2]
Average Control % ([1]; 0 + 0.0008 ppm (second compound alone)): 0%
Average Control % ([1]; 0 + 0.004 ppm (second compound alone)): 50%

CNC(=O)c1cc(Cl)cc(C)c1NC(=O)c1cc(Br)nn1-c1ncccc1Cl [Chloranthraniliprole, chloranthraniliprole]
Average Control % [1, 6]: 0%
Average Control % [2, 7]: 25%
Average Control % [3, 6]: 25%
Average Control % [4, 7]: 0%

N#Cc1nn(-c2c(Cl)cc(C(F)(F)F)cc2Cl)c(N)c1[S+]([O-])C(F)(F)F (stereo not shown) [Fipronil, fipronil]
Average Control % [1, 8]: 0%
Average Control % [2, 8]: 0%

N#CCNC(=O)c1cnccc1C(F)(F)F [Flonicamid, flonicamid]
Average Control % ([1]; 0 + 4 ppm (second compound alone)): 0%
Average Control % [2, 9]: 25%
Average Control % [3, 9]: 0%

CN(C(=O)c1cnn(C)c1C(F)F)c1cccnc1 [I-17]
Observed efficacy % (Pyricularia oryzae; 63 ppm): 0%
Observed efficacy % (Alternaria solani; 63 ppm): 4%
Average Control % [2, 10]: 0%

Cc1c(C(=O)N(C)c2ccnnc2)cnn1C(C)C [I-52]
Observed efficacy % (Pyricularia oryzae; 63 ppm): 0%
Average Control % ([1]; 0.08 + 0 ppm (first compound alone)): 0%
Average Control % [1, 10]: 25% and 50%
Observed efficacy % (Septoria tritici; 4 ppm): 18%
Observed efficacy % (Septoria tritici; 16 ppm): 18%
Observed efficacy % (Alternaria solani; 63 ppm): 0%
Observed efficacy % (Botrytis cinerea; 63 ppm): 4%
Average Control % [2, 11]: 50% and 25%
Average Control % [3, 10]: 0%
Average Control % [3, 11]: 0%
Average Control % [3, 12]: 0%
Average Control % [4, 12]: 0%

Cc1c(C(=O)N(C)c2ccnnc2)cnn1CC(F)(F)F [I-76]
Average Control % ([1]; 0.4 + 0 ppm (first compound alone)): 0%
Average Control % [1, 10]: 0%
Average Control % [1, 12]: 50%
Observed efficacy % (Septoria tritici; 1 ppm): 11%
Average Control % [5, 12]: 0%
Average Control % [2, 10]: 0%
Average Control % [2, 11]: 0%
Average Control % [2, 12]: 0%
Average Control % [4, 11]: 0%

O=[N+]([O-])NC1=NCCN1Cc1ccc(Cl)nc1 [Imidacloprid, imidacloprid]
Average Control % ([2]; 0 + 0.016 ppm (second compound alone)): 0%
Average Control % [2, 13]: 0%
Average Control % [2, 6]: 25%
Average Control % [4, 7]: 0%

OC(Cc1ccccc1Cl)(Cn1nc[nH]c1=S)C1(Cl)CC1 (stereo not shown) [Prothioconazole, 2-[2-(1-chlorocyclopropyl)-3-(2-chlorophenyl)-2-hydroxypropyl]-2,4-dihydro[1,2,4]triazole-3-thione]
Observed efficacy % (Pyricularia oryzae; 0.25 ppm): 15%
Observed efficacy % (Alternaria solani; 0.25 ppm): 22%
Observed efficacy % (Botrytis cinerea; 0.25 ppm): 45%

CC1=NNC(=O)N(/N=C/c2cccnc2)C1 [Pymetrozine, pymetrozine]
Average Control % ([5]; 0 + 400 ppm (second compound alone)): 50%

COC(=O)N(OC)c1ccccc1COc1ccn(-c2ccc(Cl)cc2)n1 [Pyraclostrobin, methyl N-{2-[1-(4-chlorophenyl)-1H-pyrazol-3-yloxymethyl]phenyl}(N-methoxy)carbamate]
Observed efficacy % (Septoria tritici; 0.004 ppm): 46%

CCOC(=O)OC1=C(c2cc(C)ccc2C)C(=O)N[C@]12CC[C@@H](OC)CC2 [Spirotetramat, spirotetramat]
Average Control % ([1]; 0 + 3.2 ppm (second compound alone)): 0%
Average Control % ([1]; 0 + 16 ppm (second compound alone)): 0%

CC(c1ccc(C(F)(F)F)nc1)S(C)(=O)=NC#N (stereo not shown) [Sulfoxaflor, sulfoxaflor]
Average Control % ([1]; 0 + 0.0064 ppm (second compound alone)): 0%

CC(C)(C)C(O)(CCc1ccc(Cl)cc1)Cn1cncn1 (stereo not shown) [Tebuconazole, 1-(4-chlorophenyl)-4,4-dimethyl-3-[1,2,4]triazol-1-ylmethylpentan-3-ol]
Observed efficacy % (Septoria tritici; 0.25 ppm): 57%

CN1COCN(Cc2cnc(Cl)s2)/C1=N\[N+](=O)[O-] [Thiamethoxam, thiamethoxam]
Average Control % [2, 8]: 25%
Average Control % [4, 7]: 25%

CON=C(C(=O)OC)c1ccccc1CON=C(C)c1cccc(C(F)(F)F)c1 [Trifloxystrobin, methyl (E)-methoxyimino-{(E)-α-[1-(α,α,α-trifluoro-mtolyl)ethylideneaminooxy]-o-tolyl}acetate]
Observed efficacy % (Septoria tritici; 0.016 ppm): 71%

CC1(C)C(C=C(Cl)Cl)C1C(=O)OC(C#N)c1cccc(Oc2ccccc2)c1 (stereo not drawn) [α-cypermethrin, alpha-cypermethrin]
Average Control % [2, 6]: 25%
Average Control % [2, 8]: 0%
Average Control % [3, 6]: 25%

abamectin
Average Control % [2, 13]: 25%
